Data set [1] is described as follows: Cardiovascular studies (heart rate, blood pressure). It counts as in vivo, Sprague-Dawley rats. Particulars: anesthetized rats, 3 mg/kg subcutaneous. As to the method: A polyethylene catheter (PE50) filled with heparinized saline was then inserted into the tail artery and connected to the blood pressure transducer system. After ensuring the absence of any air bubbles, 5–10 min of baseline systolic and diastolic blood pressure along with heart rate measurements were recorded using LabChart Pro (AD Instruments, CO).

Data set [2] deals with 5-HT 2A (Homo sapiens, UniProt P28223). Put plainly: Radioligand binding 5-HT 2A. The following applies: S2 Table; hot ligand [3H]Ketanserin; read-out: Binding Affinity Ki.
For data set [3], the target named is ADR- Alpha 1A (Homo sapiens, UniProt P35348). As to the kind of experiment: Radioligand binding ADR Alpha 1A. The following applies: S2 Table; hot ligand [3H] Prazosin; read-out: Binding Affinity Ki.
Data set [4] concerns the target 5-HT 2B (Homo sapiens, UniProt P41595). Put plainly: Radioligand binding 5-HT 2B. The following applies: S2 Table; hot ligand [3H]LSD; read-out: Binding Affinity Ki.
The target of data set [5] is ADR - Alpha 1D (Homo sapiens, UniProt P25100). As to the kind of experiment: Radioligand binding ADR Alpha 1D. The following applies: S2 Table; hot ligand [3H] Prazosin; read-out: Binding Affinity Ki.
Data set [6] has as its target 5-HT 1D (Homo sapiens, UniProt P28221). Put plainly: Radioligand binding 5-HT 1D. Particulars: S2 Table; hot ligand [3H]GR125743; read-out: Binding Affinity Ki.
In data set [7] the target is ADR - Alpha 2C (Homo sapiens, UniProt P18825). Put plainly: Radioligand binding ADR Alpha 2C. Particulars: S2 Table; hot ligand [3H] Rauwolscine; read-out: Binding Affinity Ki.
The nature of data set [8]: Microsomal stability assay, mouse. The data set is classed as in vitro ADME. The following applies: 0.1 uM.
Data set [9] has as its target Sigma 2 receptor (Homo sapiens, UniProt Q5BJF2). As to the kind of experiment: Radioligand binding Sigma 2 receptor. The following applies: S2 Table; hot ligand [3H]DTG; read-out: Binding Affinity Ki.
The target of data set [10] is 5-HT1B (Homo sapiens, UniProt P28222). Put plainly: Radioligand binding 5-HT1B. The following applies: S2 Table; hot ligand [3H]GR125743; read-out: Binding Affinity Ki.
Data set [11] deals with D3 dopamine receptor (Homo sapiens, UniProt P35462). Put plainly: Radioligand binding D3. The following applies: S2 Table; hot ligand [3H]N-Methylspiperone; read-out: Binding Affinity Ki.
Data set [12] has as its system LPS-induced TNFα response. As to the kind of experiment: In vivo LPS assay. Details: species or system C57Bl/6J mice. Particulars: 90 min post-LPS. As to the method: (§1) ; subcutaneous; […]; intraperitoneal; n = 4) or vehicle (5% DMSO/20%PEG400/water; intraperitoneal; n = 12) 15 min prior to LPS (50 ug/kg; intraperitoneal). A control group was injected with vehicle 15 minutes prior to saline (n = 18). Following injections, mice were single-housed. At 90 min post-LPS/saline, mice were deeply anesthetized with isoflurane and blood was collected from the right ventricle via cardiac puncture (23 g needle) into lithium heparin-containing vials (BD microtainer plasma tubes). Subsequently, brains were collected after perfusion with phosphate-buffered saline. Plasma was separated by centrifugation (11,000 rpm for 3 minutes) within 60 min of collection and stored at -80°C until analysis. The concentration of TNFα in the collected plasma was measured by ELISA (Invitrogen, KMC3012) according to the manufacturer’s instruction. The LPS-induced inflammatory response in the CNS was assessed by measuring mRNA expression for genes related to neuroimmune activation in brain tissue according to the previously reported method. Briefly, total RNA was extracted from hippocampus containing coronal sections using the RNeasy Lipid Tissue Mini Kit (Qiagen), and transcribed into cDNA (Superscript III, Invitrogen). PCR was performed in duplicate using TaqMan gene expression assays, TNFα (Mm00443258_m1), IL1b (Mm00434228_m1), IL6 (Mm00446190_m1), and glyceraldehyde-3-phosphate dehydrogenase (GAPDH; Mm99999915_g1). Fold changes of expression relative to control were determined after normalization to GAPDH. Relative quantification and fold change were calculated by the comparative CT method. Brain uptake of STD-101-D1 was determined in brain tissue. […]

The subject of data set [13] is LPS-induced TNFα production in primary microglia. As to the kind of experiment: In vitro primary microglia TNFα assay. The data set is classed as cell-based, Sprague Dawley rat. The following applies: Rattus norvegicus, 10 μM compound, LPS 10 ng/ml, 4 hrs, ELISA, read-out: inhibition of LPS-induced TNFα production. The source says: Mixed glial cells were obtained from the cerebral cortex of Sprague Dawley rat pups at postnatal days 1–3. Briefly, neonates were euthanized by decapitation and their brain tissues were collected for cortex isolation. The isolated cortex was then trypsinized, triturated, and placed into tissue culture flasks in DMEM supplemented with 10% fetal bovine serum and 1% Penicillin/Streptomycin. After 10 days in vitro, microglia were harvested by gentle shaking of the growth flask, plated in a 96 well plate at a density of 30,000 cells/well, and incubated at 37°C overnight.
In general terms: In an ELISA, binding on a coated surface is turned into a signal by an enzyme label.

Data set [14] is described as follows: Brain uptake in the in vivo LPS study. The following applies: C57Bl/6J, mouse, ip, mice, 3 mg/kg intraperitoneal, 105 min post-dose, read-out: concentration in brain homogenates. Further details: species or system C57Bl/6J mice. As to the method:
as §1, with “Briefly, total RNA was extracted from hippocampus containing coronal sections using the RNeasy Lipid Tissue Mini Kit (Qiagen), and transcribed into cDNA (Superscript III, Invitrogen). PCR was performed in duplicate using TaqMan gene expression assays, TNFα (Mm00443258_m1), IL1b (Mm00434228_m1), IL6 (Mm00446190_m1), and glyceraldehyde-3-phosphate dehydrogenase (GAPDH; Mm99999915_g1).” left out

Data set [15] deals with 5-HT6 (Homo sapiens, UniProt P50406). As to the kind of experiment: Radioligand binding 5-HT6. Particulars: S2 Table; hot ligand [3H]LSD; read-out: Binding Affinity Ki.
The target of data set [16] is ADR - Alpha 2B (Homo sapiens, UniProt P18089). As to the kind of experiment: Radioligand binding ADR Alpha 2B. The following applies: S2 Table; hot ligand [3H] Rauwolscine; read-out: Binding Affinity Ki.
Data set [17] has as its target 5-HT 2C (Homo sapiens, UniProt P28335). Put plainly: Radioligand binding 5-HT 2C. Particulars: S2 Table; hot ligand [3H]Mesulergine; read-out: Binding Affinity Ki.
Data set [18] has as its target ADR- Alpha 1B (Homo sapiens, UniProt P35368). Put plainly: Radioligand binding ADR Alpha 1B. The following applies: S2 Table; hot ligand [3H] Prazosin; read-out: Binding Affinity Ki.
For data set [19], the target named is ADR - Alpha 2A (Homo sapiens, UniProt P08913). As to the kind of experiment: Radioligand binding ADR Alpha 2A. Particulars: S2 Table; hot ligand [3H] Rauwolscine; read-out: Binding Affinity Ki.
ADR - Alpha 2A, sequence (P08913 whole entry): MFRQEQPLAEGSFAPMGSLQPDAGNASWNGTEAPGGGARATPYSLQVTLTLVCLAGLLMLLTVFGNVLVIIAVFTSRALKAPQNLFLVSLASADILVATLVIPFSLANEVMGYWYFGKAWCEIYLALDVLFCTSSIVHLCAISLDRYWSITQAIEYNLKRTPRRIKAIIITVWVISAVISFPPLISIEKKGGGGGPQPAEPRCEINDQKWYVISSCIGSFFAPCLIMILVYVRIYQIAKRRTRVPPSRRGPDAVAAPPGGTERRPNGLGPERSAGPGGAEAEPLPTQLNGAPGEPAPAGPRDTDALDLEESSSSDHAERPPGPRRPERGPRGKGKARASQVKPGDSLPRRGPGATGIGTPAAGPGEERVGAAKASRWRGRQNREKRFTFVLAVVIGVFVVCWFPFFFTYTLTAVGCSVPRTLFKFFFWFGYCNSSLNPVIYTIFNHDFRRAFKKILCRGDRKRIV

ADR - Alpha 2B, sequence (P18089 whole entry): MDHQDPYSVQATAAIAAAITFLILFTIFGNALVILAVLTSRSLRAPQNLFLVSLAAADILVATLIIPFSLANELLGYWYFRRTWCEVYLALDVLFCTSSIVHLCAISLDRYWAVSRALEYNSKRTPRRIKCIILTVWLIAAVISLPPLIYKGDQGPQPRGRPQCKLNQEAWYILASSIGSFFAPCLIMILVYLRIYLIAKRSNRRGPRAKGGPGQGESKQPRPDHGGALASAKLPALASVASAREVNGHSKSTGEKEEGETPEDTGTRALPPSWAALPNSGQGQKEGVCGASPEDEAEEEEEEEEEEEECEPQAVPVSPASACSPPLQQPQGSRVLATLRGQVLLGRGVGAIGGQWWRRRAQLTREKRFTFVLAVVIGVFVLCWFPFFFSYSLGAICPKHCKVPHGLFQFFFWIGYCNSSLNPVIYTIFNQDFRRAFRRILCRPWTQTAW
ADR- Alpha 1A, sequence (P35348 whole entry): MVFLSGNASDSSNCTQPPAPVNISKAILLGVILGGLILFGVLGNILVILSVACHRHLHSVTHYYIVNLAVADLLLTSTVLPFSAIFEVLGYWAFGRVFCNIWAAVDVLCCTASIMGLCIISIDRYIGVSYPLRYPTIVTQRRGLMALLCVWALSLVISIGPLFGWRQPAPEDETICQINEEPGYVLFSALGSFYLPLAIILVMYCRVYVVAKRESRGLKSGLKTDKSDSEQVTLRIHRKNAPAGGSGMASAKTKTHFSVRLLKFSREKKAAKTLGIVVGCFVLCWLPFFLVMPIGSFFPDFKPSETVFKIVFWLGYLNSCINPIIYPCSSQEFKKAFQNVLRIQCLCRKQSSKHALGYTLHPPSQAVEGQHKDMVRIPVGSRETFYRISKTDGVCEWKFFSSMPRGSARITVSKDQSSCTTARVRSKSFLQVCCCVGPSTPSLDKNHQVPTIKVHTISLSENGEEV
ADR - Alpha 2C, sequence (P18825 whole entry): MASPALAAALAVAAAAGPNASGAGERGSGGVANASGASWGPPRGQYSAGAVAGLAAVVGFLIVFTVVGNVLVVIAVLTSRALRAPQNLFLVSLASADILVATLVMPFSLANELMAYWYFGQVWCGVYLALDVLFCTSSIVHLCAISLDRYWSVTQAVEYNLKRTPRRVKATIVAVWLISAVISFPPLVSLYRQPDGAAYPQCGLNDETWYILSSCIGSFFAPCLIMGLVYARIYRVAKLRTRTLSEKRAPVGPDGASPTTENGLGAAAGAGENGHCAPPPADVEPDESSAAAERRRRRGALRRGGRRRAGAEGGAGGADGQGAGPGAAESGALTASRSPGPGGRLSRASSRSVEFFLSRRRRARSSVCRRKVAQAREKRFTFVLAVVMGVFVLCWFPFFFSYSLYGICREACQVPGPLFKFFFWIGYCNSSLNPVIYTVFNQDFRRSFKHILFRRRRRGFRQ
D3 dopamine receptor, sequence (P35462 whole entry): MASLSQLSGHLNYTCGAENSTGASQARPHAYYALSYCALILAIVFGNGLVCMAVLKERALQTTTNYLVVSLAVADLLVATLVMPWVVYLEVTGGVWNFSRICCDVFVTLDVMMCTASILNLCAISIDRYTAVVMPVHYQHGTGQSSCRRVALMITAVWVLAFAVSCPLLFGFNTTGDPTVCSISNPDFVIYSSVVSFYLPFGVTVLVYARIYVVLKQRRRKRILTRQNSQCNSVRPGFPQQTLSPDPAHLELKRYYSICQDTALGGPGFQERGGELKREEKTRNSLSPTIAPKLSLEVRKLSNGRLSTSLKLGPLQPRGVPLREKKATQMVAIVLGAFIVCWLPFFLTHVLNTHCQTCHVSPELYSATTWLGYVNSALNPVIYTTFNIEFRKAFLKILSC
Sigma 2 receptor, sequence (Q5BJF2 whole entry, species assumed): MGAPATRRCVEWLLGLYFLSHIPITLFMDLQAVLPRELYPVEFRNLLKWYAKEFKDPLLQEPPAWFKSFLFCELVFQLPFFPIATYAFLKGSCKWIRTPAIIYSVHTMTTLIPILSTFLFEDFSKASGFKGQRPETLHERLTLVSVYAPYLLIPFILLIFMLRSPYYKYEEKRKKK
5-HT1B, sequence (P28222 whole entry, species assumed): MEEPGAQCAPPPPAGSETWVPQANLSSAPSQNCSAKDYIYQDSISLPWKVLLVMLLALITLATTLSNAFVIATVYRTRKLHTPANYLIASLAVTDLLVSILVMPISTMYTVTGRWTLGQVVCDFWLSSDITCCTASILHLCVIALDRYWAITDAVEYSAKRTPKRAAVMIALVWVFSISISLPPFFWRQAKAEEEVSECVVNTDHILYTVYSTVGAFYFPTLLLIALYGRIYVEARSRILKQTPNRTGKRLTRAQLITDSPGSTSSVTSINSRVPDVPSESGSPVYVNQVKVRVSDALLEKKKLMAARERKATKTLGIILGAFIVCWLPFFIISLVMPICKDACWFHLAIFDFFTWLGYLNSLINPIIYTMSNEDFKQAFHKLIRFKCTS
5-HT 1D, sequence (P28221 whole entry, species assumed): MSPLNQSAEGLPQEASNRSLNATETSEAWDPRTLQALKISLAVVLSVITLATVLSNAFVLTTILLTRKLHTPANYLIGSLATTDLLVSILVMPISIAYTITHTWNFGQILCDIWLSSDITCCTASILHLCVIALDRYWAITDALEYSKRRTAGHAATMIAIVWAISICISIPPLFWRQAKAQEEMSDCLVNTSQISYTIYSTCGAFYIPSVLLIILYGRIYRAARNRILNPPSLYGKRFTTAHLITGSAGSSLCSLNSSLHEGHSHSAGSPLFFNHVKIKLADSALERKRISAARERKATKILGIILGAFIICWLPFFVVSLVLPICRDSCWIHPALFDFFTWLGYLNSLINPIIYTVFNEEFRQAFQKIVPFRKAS
ADR- Alpha 1B, sequence (P35368 whole entry): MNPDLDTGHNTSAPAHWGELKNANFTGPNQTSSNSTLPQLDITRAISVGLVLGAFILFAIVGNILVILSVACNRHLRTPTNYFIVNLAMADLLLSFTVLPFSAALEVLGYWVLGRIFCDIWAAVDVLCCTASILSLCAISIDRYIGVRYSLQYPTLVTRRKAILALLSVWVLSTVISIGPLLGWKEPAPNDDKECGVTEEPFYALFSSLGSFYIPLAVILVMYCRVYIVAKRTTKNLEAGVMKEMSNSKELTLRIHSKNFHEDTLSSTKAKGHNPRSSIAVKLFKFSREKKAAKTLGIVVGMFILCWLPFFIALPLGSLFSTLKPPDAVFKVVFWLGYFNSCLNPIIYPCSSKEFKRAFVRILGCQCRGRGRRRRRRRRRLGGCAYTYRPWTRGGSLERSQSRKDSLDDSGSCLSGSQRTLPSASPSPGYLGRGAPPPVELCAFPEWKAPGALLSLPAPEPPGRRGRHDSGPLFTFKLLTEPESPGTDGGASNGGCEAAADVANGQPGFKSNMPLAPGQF
ADR - Alpha 1D, sequence (P25100 whole entry): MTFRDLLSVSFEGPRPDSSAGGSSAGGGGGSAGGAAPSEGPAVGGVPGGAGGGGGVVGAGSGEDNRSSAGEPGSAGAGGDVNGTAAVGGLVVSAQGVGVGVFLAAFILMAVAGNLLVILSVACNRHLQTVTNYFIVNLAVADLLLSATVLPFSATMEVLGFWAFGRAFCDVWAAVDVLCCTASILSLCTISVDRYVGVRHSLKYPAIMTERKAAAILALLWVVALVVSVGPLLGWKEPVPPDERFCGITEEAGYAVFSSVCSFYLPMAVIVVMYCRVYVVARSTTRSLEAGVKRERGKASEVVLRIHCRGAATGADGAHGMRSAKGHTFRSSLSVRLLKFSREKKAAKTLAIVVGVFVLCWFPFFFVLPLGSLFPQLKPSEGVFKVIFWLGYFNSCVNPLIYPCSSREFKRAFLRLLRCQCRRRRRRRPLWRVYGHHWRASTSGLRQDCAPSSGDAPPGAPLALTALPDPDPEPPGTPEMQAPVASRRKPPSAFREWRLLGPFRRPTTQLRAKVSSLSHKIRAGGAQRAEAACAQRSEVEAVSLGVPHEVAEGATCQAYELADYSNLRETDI
5-HT6, sequence (P50406 whole entry, species assumed): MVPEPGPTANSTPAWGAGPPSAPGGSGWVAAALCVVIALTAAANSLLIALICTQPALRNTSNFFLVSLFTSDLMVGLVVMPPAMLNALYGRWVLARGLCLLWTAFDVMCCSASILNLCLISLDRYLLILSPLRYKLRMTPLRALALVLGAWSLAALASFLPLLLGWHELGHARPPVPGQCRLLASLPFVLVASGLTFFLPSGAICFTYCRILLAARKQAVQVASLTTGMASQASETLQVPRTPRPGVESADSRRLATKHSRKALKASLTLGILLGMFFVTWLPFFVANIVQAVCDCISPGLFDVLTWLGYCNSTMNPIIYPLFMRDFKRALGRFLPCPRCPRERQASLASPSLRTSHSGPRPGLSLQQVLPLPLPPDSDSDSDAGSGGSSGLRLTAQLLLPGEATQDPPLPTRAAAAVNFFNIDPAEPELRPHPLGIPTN

With `COc1ccccc1OCCNC[C@H](O)COc1ccc(O)cc1.COc1ccccc1OCCNC[C@H](O)COc1ccc(O)cc1.O=C(O)/C=C/C(=O)O` [STD-101-D1, (S)-4-(2-hydroxy-3-((2-(2-methoxyphenoxy)ethyl)amino)propoxy)phenol hemifumarate], in data set [1], the “decrease in blood pressure” value is on record as 46%. In data set [1], the “increase in heart rate” value is reported as 13%. Moreover, the Ki in data set [2] came out at 1240 nM; in [3], 17 nM; in [4], 25 nM; in [5], 25 nM; in [6] it was 149 nM; in [7], 108 nM. Also, the Ki in [9] is 236 nM; in data set [10], 382 nM; in data set [11], 47 nM; in data set [15], 1770 nM; in [16] it was 337 nM; in data set [17], 1150 nM. Besides, the inhibitory constant (Ki) in data set [18] stood at 267 nM; in data set [19], 1170 nM. Besides, the “compound remaining after 60 min, mouse liver microsomes” value in [8] is given as 62.8%. In addition, the “LPS-induced systemic (plasma) TNFα response” value in [12] (3 mg/kg pre-treatment 15 min prior to LPS) was “markedly inhibited”. Besides, the “CNS IL-1β (mRNA) after LPS” value in data set [12] (3 mg/kg pre-treatment) is “trend for attenuation”. In [12] (3 mg/kg pre-treatment), the “CNS IL-6 (mRNA) after LPS” value is “no effect”. For the same compound, the “LPS-induced inflammatory TNFα response in the brain (mRNA)” value in data set [12] (3 mg/kg pre-treatment) is on record as “attenuated”. The inhibition at 10 µM in [13] is approximately 50%. Moreover, the concentration at 105 min in data set [14] was 130 ± 28.2 ng/g.

Usually Ki stands for the dissociation constant of the complex between target and ligand, obtained from inhibition or displacement. The term inhibition denotes the drop in the measured response relative to a control, in per cent.

Source of the values: article PMC5529018, “Discovery of novel brain permeable and G protein-biased beta-1 adrenergic receptor partial agonists for the treatment of neurocognitive disorders” (PLoS ONE, 2017).
